The values below come from article PMC11887051, “Discovery of ONO-2920632 (VU6011887): A Highly Selective and CNS Penetrant TREK-2 (TWIK-Related K+ Channel 2) Preferring Activator In Vivo Tool Compound” (ACS Chemical Neuroscience, 2025).

Series [1] is described as follows: rat plasma protein binding (equilibrium dialysis). In kind it is in vitro ADME. Conditions: pH 7.4, read-out: rat plasma fu. As to the method: In vitro Plasma protein binding and Brain homogenate binding: Determination of fraction unbound (f u) in plasma was conducted in vitro via equilibrium dialysis using HTDialysis (HTD) membrane plates. The top half of the plate was filled with 100 uL of Dubelco’s Phosphate Buffered Saline, pH 7.4 (DPBS). Compounds were diluted into plasma from each species (5 µM final concentration), which was aliquoted in triplicate to the ‘bottom half’ of the prepared HTD plate wells. The HTD plate was sealed and incubated for 6 hours at 37 °C. Following incubation, each well (both top and bottom halves) were transferred (20 µL) to the corresponding wells of a 96-shallow-well (V-bottom) plate. The daughter plates were then matrix-matched (DPBS side wells received equal volume of plasma, and plasma side wells received equal volume of DPBS), and extraction solution (120 µL; acetonitrile containing 50 nM carbamazepine as IS) was added to all wells of both daughter plates to precipitate protein and extract test article. The plates were then sealed and centrifuged (3500 rcf) for 10 minutes at ambient temperature. Supernatant (60 µL) from each well of the daughter plates was then transferred to the corresponding wells of new daughter plates (96-shallow-well, V bottom) containing water (Milli-Q, 60 µL/well), and the plates were sealed in preparation for LC-MS/MS analysis (see LC-MS/MS analysis method below).
The unbound fraction (f u) was calculated following the equation below, and mean values for each species were calculated from 3 replicates. […]
Fraction unbound for both plasma and brain samples was determined using Equation 4.
Equation 4 Determination of fraction unbound in plasma. […]
(Equilibrium dialysis compares concentrations on both sides of a semipermeable membrane.)

The target in a further series is T1, TREK-2 (Homo sapiens, UniProt P57789).
T1 sequence (P57789 1-538): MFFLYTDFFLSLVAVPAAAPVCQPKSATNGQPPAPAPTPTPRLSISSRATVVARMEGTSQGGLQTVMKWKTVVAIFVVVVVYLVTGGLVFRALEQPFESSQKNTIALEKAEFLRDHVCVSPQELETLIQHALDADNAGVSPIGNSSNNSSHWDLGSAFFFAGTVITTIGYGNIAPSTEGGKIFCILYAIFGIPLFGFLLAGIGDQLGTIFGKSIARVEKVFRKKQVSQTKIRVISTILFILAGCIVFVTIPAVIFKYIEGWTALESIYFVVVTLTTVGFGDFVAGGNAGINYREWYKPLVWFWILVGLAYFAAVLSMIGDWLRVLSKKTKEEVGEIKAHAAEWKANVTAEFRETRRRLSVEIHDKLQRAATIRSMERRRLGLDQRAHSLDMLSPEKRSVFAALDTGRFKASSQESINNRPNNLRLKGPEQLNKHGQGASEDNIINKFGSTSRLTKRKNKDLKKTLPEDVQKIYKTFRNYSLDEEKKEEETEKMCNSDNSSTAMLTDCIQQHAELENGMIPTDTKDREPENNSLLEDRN
Description: TREK-2 thallium flux assay (hTREK-2/HEK). Set-up: expressed in transfected cells; host or cells: HEK293. In kind it is cell-based. Conditions: for Emax: % activation relative to 10 µM BL-1249; for Fold TREK-2: TREK-2 preference over TREK-1, thallium flux. The protocol: Procedures for Biological Experiments
TREK-1 and TREK-2 thallium flux assay protocol […]
HEK293 cells stably expressing human TREK-2 (hTREK-2/HEK) were constructed at Ono. hTREK-1/CHO or hTREK-2/HEK were plated in 384-well plates at a density of 1.0x10^4 cells/well or 2.0x10^4 cells/well, respectively, and cultured overnight. After the wash by HBSS + 20 mM HEPES buffer, cells were loaded with Thallos dye for 1 hour at room temperature. After the wash […]
dissolved with HBSS + 20mM HEPES buffer were added to each well. After 10 minutes incubation at room temperature, thallium stimulus buffer were added to each well and the fluorescent intensity are measured by Panoptic. The final thallium concentration was 0.36 mM in […]
TREK-1 or 0.24 mM in TREK-2, respectively. […]

In the next series the target is T2, mouse TREK-1 (Mus musculus, UniProt P97438).
T2 sequence (P97438 1-426): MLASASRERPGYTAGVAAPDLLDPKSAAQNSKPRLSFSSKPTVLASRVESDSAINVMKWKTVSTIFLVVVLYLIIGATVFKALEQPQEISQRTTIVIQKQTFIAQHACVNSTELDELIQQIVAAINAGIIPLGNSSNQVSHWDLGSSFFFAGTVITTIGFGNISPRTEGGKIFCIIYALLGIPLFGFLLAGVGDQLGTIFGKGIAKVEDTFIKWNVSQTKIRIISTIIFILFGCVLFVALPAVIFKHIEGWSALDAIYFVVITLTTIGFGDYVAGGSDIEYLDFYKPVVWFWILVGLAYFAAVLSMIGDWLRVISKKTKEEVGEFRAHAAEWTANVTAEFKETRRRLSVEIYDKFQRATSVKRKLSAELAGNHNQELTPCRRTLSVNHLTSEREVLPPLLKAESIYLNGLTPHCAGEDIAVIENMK
Description: mouse TREK-1 MPC assay. Format: cell-based. As to conditions: manual patch clamp.

In the next series the target is T3, mouse TREK-2 (Mus musculus, UniProt Q8BUW1).
T3 sequence (Q8BUW1 1-535): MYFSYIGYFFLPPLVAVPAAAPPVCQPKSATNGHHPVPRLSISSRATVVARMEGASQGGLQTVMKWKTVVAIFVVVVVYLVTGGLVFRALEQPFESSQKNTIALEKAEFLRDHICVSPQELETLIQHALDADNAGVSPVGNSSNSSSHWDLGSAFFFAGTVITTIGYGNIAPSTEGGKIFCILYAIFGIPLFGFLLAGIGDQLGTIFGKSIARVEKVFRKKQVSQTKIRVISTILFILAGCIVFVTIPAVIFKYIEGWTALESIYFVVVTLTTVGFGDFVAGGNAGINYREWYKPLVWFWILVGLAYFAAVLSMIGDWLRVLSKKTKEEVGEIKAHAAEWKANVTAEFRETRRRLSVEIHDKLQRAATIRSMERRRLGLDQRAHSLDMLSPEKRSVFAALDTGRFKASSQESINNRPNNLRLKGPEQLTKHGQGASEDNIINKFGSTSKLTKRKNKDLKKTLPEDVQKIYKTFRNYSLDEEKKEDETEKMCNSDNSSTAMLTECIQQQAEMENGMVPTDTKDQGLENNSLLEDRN
Description: mouse TREK-2 MPC assay. Format: cell-based. As to conditions: for EC50 / Emax: mouse, manual patch clamp; for TREK-2 preference (mouse MPC): TREK-2 over TREK-1, mouse MPC. On the technique in general: Patch clamp records ionic current or voltage across a cell membrane.

By EC50 is commonly meant the concentration at which the effect is half-maximal. Read a low EC50 as higher potency in that assay. The Emax is the maximal effect, on the per cent scale that the assay sets. For `CS(=O)(=O)Nc1ccc(C(=O)NCc2ccc(Cl)cc2Cl)cc1` [Compound 13], the fraction unbound at 6 h, 5 µM in series [1] came out at 0.027. On TREK-2, the EC50 was found to be 3200 nM, the Emax is 155% and the “Fold TREK-2” value was about 3 fold.

Turning to `O=C(NCc1ccc(Br)cc1Cl)c1ccc(-c2ncn[nH]2)cc1` [Compound 14a], the EC50 on mouse TREK-1 stood at 1900 nM; at mouse TREK-2 it was 610 nM; at TREK-2 it was 730 nM. For the same compound, the figures for the Emax at mouse TREK-1, on mouse TREK-2 and at TREK-2 were 94%, 97% and 183%, respectively.

As to `Cc1cc(OC(F)(F)F)ccc1CNC(=O)c1ccc2ncnn2c1` [Compound 19a], at mouse TREK-1, the response was half-maximal at 5000 nM (EC50) and the Emax was determined as 106%. Further, in series [1], the fraction unbound at 6 h, 5 µM worked out at 0.075. For the same compound, at mouse TREK-2, the “TREK-2 preference (mouse MPC)” value is reported as 33 fold, a half-maximal response (EC50) required 150 nM and the Emax came to 105%. Further, at TREK-2, the EC50 came to 150 nM, the Emax turned out to be 160% and the “Fold TREK-2” value came out at 25.3 fold.

As to `O=C(NCc1ccc(OC(F)(F)F)cc1F)c1ccc2ncnn2c1` [Compound 19b], on mouse TREK-1, a half-maximal effect (EC50) was put at 2700 nM and the Emax stood at 109%. Further, the fraction unbound at 6 h, 5 µM in series [1] worked out at 0.075. For the same compound, on mouse TREK-2, the “TREK-2 preference (mouse MPC)” value was determined as 4.7 fold, the response was half-maximal at 570 nM (EC50) and the Emax came to 105%. Further, at TREK-2, the 50% effective concentration (EC50) turned out to be 300 nM, the maximal effect (Emax) came out at 184% and the “Fold TREK-2” value is recorded as 9.3 fold.
